These results are taken from paper PMC9229798, “Antioxidant Activity and Cytotoxicity of Aromatic Oligosulfides” (Molecules, 2022).

Details of series [1]: method as in doi:10.3906/kim-1904-40. Conditions: adrenaline autoxidation in alkaline buffer; cited from earlier work.
The conditions of series [2]: ferrozine–Fe2+ complex formation; cited from earlier work.
Series [3] has as its system SOD. Details: method as in doi:10.3906/kim-1904-40. The note with it: adrenaline oxidation with biopreparation; cited from earlier work.
Details of series [4]: method as in doi:10.1016/j.arabjc.2021.103068. The note with it: all stages of LPO; cited from earlier work.
On the set-up of series [5]: method as in doi:10.1016/j.arabjc.2021.103068. The note with it: oleic acid, 1 mmol/L additive, 65 °C; cited from earlier work.
Details of series [6]: method as in doi:10.3906/kim-1904-40. The note with it: Trolox equivalents; cited from earlier work.
Details of series [7]: method as in doi:10.3906/kim-1904-40. Conditions: PASS, cited from earlier work.
On the set-up of series [8]: method as in doi:10.1016/j.arabjc.2021.103068. The note with it: 1 mmol/L additive, 65 °C; cited from earlier work.
Series [9] relates to MCF-7. Also noted: method as in doi:10.3906/kim-1904-40. Conditions: CLC-Pred, cited from earlier work; for Cytotoxicity MCF-7, Pi: probability of lack of activity; for Cytotoxicity MCF-7, Pa: probability of presence of activity.
Series [10] relates to A-549. Kind of series: Annexin V/Dead Cell assay. The series is classed as cell-based, human. The note with it: A-549, 2 × IC50, 48 h. An excerpt: (§1) Apoptosis or programmed cell death is an important and active regulatory pathway of cell growth and proliferation. Cells respond to specific induction signals by initiating intracellular processes that result in characteristic physiological changes. Among these are externalization of phosphatidylserine (PS) to the cell surface, cleavage and degradation of specific cellular proteins, compaction and fragmentation of nuclear chromatin, and loss of membrane integrity. Phosphatidylserine (PS) is normally located in the inner part of the cell membrane. In the initial stage of apoptosis, the PS residues which translocated to the extracellular are detected by Annexin V, which is a calcium-dependent phospholipid-binding protein with a high affinity for PS. Annexin V flow cytometric assay was used to evaluate the compounds’ ability to induce apoptosis and influence on cell death. HCT-116 colon carcinoma and A-549 lung adenocarcinoma cells were treated by disulfides 2 and 3.
(§2) HCT-116 (colon carcinoma) and A-549 (lung carcinoma) cells (1 × 10^6) were seeded in a six-well plate and were incubated for 24 h. […] After incubation, the cells were harvested by trypsinization, precipitated by centrifugation (3000 rpm), washed with PBS, recentrifuged, and the buffer was removed. DMEM was added to achieve a cell concentration of 400–1000 cells/µL. The Muse Annexin V & Dead Cell Kit reagent (100 µL) was added to the cells and […] for 20 min at room temperature in the dark. The results were recorded on a Muse Cell Analyzer flow cytometer (Merck, Rahway, NJ, USA).

The subject of series [11] is HCT-116. Kind of series: Annexin V/Dead Cell assay. The series is classed as cell-based, human.
Description: as §1, §2

Where [12] appears, read: probability of lack of activity.
Where [13] appears, read: probability of presence of activity.

On to `c1ccc(SSc2ccccc2)cc1` [Compound 5, diphenyl disulfide], for which, in series [1], the “Antiradical Activity, % Inhibition” value is 56 ± 2.9 %. Besides, in series [2], the “FIC, % of Inhibition” value is listed as 73.7 ± 2.1 %. Also, the “SOD Activity of Liver Sturgeon, % Inhibition” value in series [3] was 61 ± 4.8 %. Also, the “anti-/prooxidant effect in liver LPO” value in [4] was “prolonged prooxidant activity”. Also, the “TBARS, % Inhibition” value in series [5] is 24.6 ± 0.29 %. Further, the “TEAC CUPRAC” value in [6] was 0.10 ± 0.01. Also, in series [7] (setting [12]), the “Antidote, Pi” value is 0.078; the “Free radical scavenger, Pi” value is 0.056; the “Nitric oxide scavenger, Pi” value is given as 0.013; the “Oxygen scavenger, Pi” value is recorded as 0.018. Also, in series [7] (setting [13]), the “Antidote, Pa” value is 0.228; the “Free radical scavenger, Pa” value is listed as 0.230; the “Nitric oxide scavenger, Pa” value was 0.274; the “Oxygen scavenger, Pa” value is reported as 0.621. In [8], the “LOOH, k0/k1 (relative rate constant of LOOH formation)” value was 0.79 ± 0.11. In series [9], the “Cytotoxicity MCF-7, Pi” value was 0.005 and the “Cytotoxicity MCF-7, Pa” value was 0.882.
As to `CC(C)(C)c1cc(SSc2cc(C(C)(C)C)c(O)c(C(C)(C)C)c2)cc(C(C)(C)C)c1O` [Compound 6, bis(3,5-di-tert-butyl-4-hydroxyphenyl) disulfide], the “Antiradical Activity, % Inhibition” value in [1] is on record as 37 ± 4.8 %. In series [2], the “FIC, % of Inhibition” value is given as 28.9 ± 1.3 %. In addition, the “SOD Activity of Liver Sturgeon, % Inhibition” value in series [3] is reported as 85 ± 3.0 %. Also, the “anti-/prooxidant effect in liver LPO” value in series [4] was “pronounced antioxidant effect”. In addition, the “TBARS, % Inhibition” value in series [5] is 73.1 ± 1.30 %. Moreover, the “TEAC CUPRAC” value in series [6] is on record as 2.04 ± 0.05. Further, in [7] (setting [12]), the “Antidote, Pi” value is 0.027; the “Antioxidant, Pi” value is recorded as 0.005; the “Free radical scavenger, Pi” value is 0.012; the “Nitric oxide scavenger, Pi” value is recorded as 0.012. Further, in series [7] (setting [12]), the “Oxygen scavenger, Pi” value is recorded as 0.044. Besides, in [7] (setting [13]), the “Antidote, Pa” value is listed as 0.317; the “Antioxidant, Pa” value is 0.549; the “Free radical scavenger, Pa” value is 0.473; the “Nitric oxide scavenger, Pa” value was 0.278. Also, in [7] (setting [13]), the “Oxygen scavenger, Pa” value is 0.519. Further, the “LOOH, k0/k1 (relative rate constant of LOOH formation)” value in [8] is 0.49 ± 0.05. In series [9], the “Cytotoxicity MCF-7, Pi” value is 0.082 and the “Cytotoxicity MCF-7, Pa” value is 0.403.
In the case of `COc1ccccc1SSc1ccccc1OC` [Compound 2, bis(2-methoxyphenyl) disulfide], in [10], the “Early Apop.” value is on record as 24.0% and the total apoptotic cells turned out to be 25.2%.
On to `COc1ccc(SSc2ccc(OC)c(OC)c2)cc1OC` [Compound 3, bis(3,4-dimethoxyphenyl) disulfide], for which, in series [11] (HCT-116, 2 × IC50, 24 h), the “Early Apop.” value is reported as 9.1%, the “Late Apop./Dead” value was 2.7% and the total apoptotic cells is 11.8%. Further, in [11] (HCT-116, 2 × IC50, 48 h), the “Late Apop./Dead” value is recorded as 17.7% and the total apoptotic cells was found to be 44%. For the same molecule, in series [10], the “Early Apop.” value was 38.2% and the total apoptotic cells was 42.6%.
As a reminder, the melting point is the temperature, or range, at which the solid turns liquid. Turning to `c1ccc(SSSc2ccccc2)cc1` [Compound 1, diphenyl trisulfide], the melting point lay within 58 to 60 °C.
